{
  "source": "patent US9592214B2",
  "about": "“Compounds for the treatment of autism in a baby child” (INSERM (INSTITUT NATIONAL DE LA SANTE ET DE LA RECHERCHE …, priority 2010, dated 2017)",
  "key": {"hippocampal slices": {"test_system": "hippocampal slices", "assay": "Effects of isoguvacine on spike frequency, extracellular field potential recordings in hippocampal slices", "type": "cell-based, rat", "details": "P15", "procedure": "(§1) Experiments were performed on fetuses and neonatal rat pups. We removed E20 rats from deeply anesthetized dams [subcutaneous injection of a mixture of xylazine (Rompun 2%; used at 0.05%) and ketamine (Imalgene 1000 used at 50 g/l)]. Hippocampal slices ([…] thick) were prepared using a Microm tissue slicer (International GmbH, Germany) as described previously (Tyzio et al. 2006 Science 314, 1788; Tyzio et al, 2008, Eur J. Neurosci. 27(10):2515-28). Slices were kept in oxygenated (95% O2/5% CO2) artificial cerebrospinal fluid (ACSF) of the following composition (in mM): NaCl 126, KCl 3.5, CaCl2 2.0, MgCl2 1.3, NaHCO3 25, NaH2PO4 1.2 and glucose 11 (pH 7.4) at room temperature (20-22° C.) at least 1 hour before use.\nExtracellular field potentials and multi-unit activity (MUA) recordings Recording were made in the hippocampal slices using tungsten wire electrodes (diameter: 50 μm, California Fine Wire, Grover Beach, Calif.) and a low-noise multichannel DAM-8A amplifiers (WPI, GB; […]; gain: ×1000). The signals were digitized using an analogue-to-digital converter (Digidata 1440A, Axon Instruments, USA). pCLAMP 10.1, Clampfit 10.1 (Axon Instruments, USA), MiniAnalysis 6.03 (Synaptosoft, Decatur, Calif.) and Origin 7.5 (Microcal Software, USA) programs were used for the acquisition and analysis of the synaptic activities. Sampling interval per signal was 100 microseconds (10 kHz).\n(§2) Bumetanide (10 μM), Oxytocin (1 μM) and Isoguvacine (2 μM) were directly added to the perfusion solutions. Bumetanide pretreatment (2-2.5 mg/kg) was given to the dams in drinking water. All drugs used were purchased from Sigma. SSR126768A (Sanofi-Synthelabo) pretreatment (1 mg/kg) was given to the dams in drinking water."}, "CA3 pyramidal cells": {"test_system": "CA3 pyramidal cells", "assay": "Effect of isoguvacine on spontaneous spiking, cell-attached recordings", "type": "cell-based, rat", "details": "result in words", "procedure": "as §1\nFor recordings, slices were placed into a conventional fully submerged chamber superfused with ACSF at a rate of 2-3 ml/min at room temperature. Patch clamp recordings from visually identified CA3 pyramidal cells in cell-attached configuration were performed using EPC-10 amplifier (HEKA Elektronik Dr. Schulze GmbH, Lambrecht/Pfalz, Germany). […] Recordings were digitized (10 kHz) online with Digidata-1200 interface card (Axon Instruments, Union City, Calif.) and analyzed offline with Axon package, MiniAnalysis (S (Synaptsoft, Decatur, Ga.), and Origin (Microcal Software, Northampton, Mass.). […]"}, "[1]": {"test_system": "Valproate rat model of autism", "assay": "In vivo EEG recordings in the CA3 area of hippocampus of head-restrained rats", "details": "VPA rats P13-15", "procedure": "(§3) Time-mated female Wistar rats at gestational day E7-8 were housed under standard laboratory conditions. The in utero valproic acid (VPA) rodent model of autism spectrum disorders has been previously described in detail. Briefly, the sodium salt of VPA (Sigma-Aldrich) was dissolved in physiological saline solution to a concentration of 300 mg/ml. Pregnant rats received a single intra-peritoneal dose of 600 mg/kg on gestational day 12 (E12). The control dams received a single similar volume injection of saline at the same gestational time-point. Dams were housed individually and allowed to raise their own litters. The offspring were used for experiments on embryonic day 20 (E20) and postnatal (P) days 0, 2, 4, 7, 15 and 30 (after being weaned at P23). Experiments were carried out on offspring of either sex.\nHead-fixed rat pups of age P13-P15 were prepared for extracellular recording under isoflurane anesthesia. The skin and periosteum were removed from the skull, which was then covered by glue and dental cement except for a 4-9 mm^2 window above the somatosensory cortex from one or two hemispheres for the silicon probe penetration (4.0-4.2 mm lateral to midline and 2.2-2.5 mm caudal to bregma) and for the reference electrode (1.0-1.5 mm lateral to midline and 6.0-6.5 mm caudal to bregma). The rat was positioned in the stereotaxic apparatus. A 1 mm-diameter burr hole was drilled in the skull; the dura was cut and removed. Recordings were made 1 h after recovery from anesthesia. Pups were kept restrained for <3 h and were closely monitored for signs of stress and to ensure that they spent a normal proportion of their time sleeping. The outside temperature was maintained between 35 and 36° C. The animals were kept in low-light conditions throughout all experiments. 16-site linear silicone probe (NeuroNexus Technologies) coupled to a direct-current amplifier (Molecular Devices) and dunked previously in fluorescent dye (DiI, Invitrogen) was slowly penetrated via the hole at […] depth under the angle 30° in the coronal plane. EEGs were recorded during 2 hours, using a 16-channel amplifier (A-M System, Inc.) and digitized at 5 kHz using Axoscope software (Molecular Deviced). Recordings were amplified and high-pass filtered at 0.3 Hz in Axoscope. Silicone probe location was verified postmortem via dye localization. To quantify the frequency band integral power the traces were band-pass filtered at frequency bands […]) θ-(4-7 Hz), α-(7-12 Hz), β-(12-25 Hz), Low γ-(25-60 Hz), High γ-(60-120 Hz) and Fast oscillations-(120-500 Hz)). Fast Fourier Transform (FFT) was applied with Clampfit (Molecular Devices). Integrals of FFT power spectra were taken and averaged with OriginPro (OriginLab Corporation).\nas §2"}, "[2]": {"test_system": "Valproate rat model of autism", "assay": "Isolation-induced ultrasonic vocalizations", "type": "in vivo", "details": "P4 VPA rats", "procedure": "as §3\nTo induce ultrasonic vocalizations, […], and were placed into an isolation box (23×28×18 cm) located inside a sound attenuating isolation cubicle (54×57×41 cm; Coulbourn Instruments, Allentown, Pa., USA), and evaluated for ultrasonic vocalizations during a three minutes test. An ultrasound microphone (Avisoft UltraSoundGate Condenser microphone capsule CM16/CMPA, Avisoft Bioacoustics, Berlin, Germany), placed in the roof of the box, was sensitive to frequencies of 10 to 250 kHz. Vocalizations were recorded using the Avisoft Recorder software (version 4.2) with a sampling rate of 250 kHz in 16 bit format. For acoustical analysis, recordings were transferred to SASLab Pro (version 5.2; Avisoft Bioacoustics) and a fast Fourier transformation was conducted (512 FFT-length, 100% frame, Hamming window and 75% time window overlap). The accuracy of call detection was verified manually by an educated user. A Pearson correlation coefficient was computed to assess the relationship between Automatic and Manual analysis. There was 0.99 correlation between the two variables.\nas §2"}, "[3]": {"test_system": "hippocampal CA3 pyramidal cells", "assay": "DFGABA in hippocampal CA3 pyramidal cells of offspring after in utero VPA / maternal bumetanide pretreatment", "type": "in vivo, rat", "details": "VPA rats (dams 600 mg/kg VPA i.p. at E12)", "procedure": "as §3, §1\nFor recordings, slices were placed into a conventional fully submerged chamber superfused with ACSF at a rate of 2-3 ml/min at room temperature. Patch clamp recordings from visually identified CA3 pyramidal cells in cell-attached configuration were performed using EPC-10 amplifier (HEKA Elektronik Dr. Schulze GmbH, Lambrecht/Pfalz, Germany). Patch pipette solution for recordings of single GABAA channels contained (in mM): NaCl 120, KCl 5, TEA-Cl 20, 4-aminopyridine 5, CaCl2 0.1, MgCl2 10, glucose 10, Hepes-NaOH 10 buffered to pH 7.2-7.3 and GABA 2 μM. Analysis of currents through single channels and current-voltage relationships were performed using Clampfit 9.2 (Axon Instruments, Union City, Calif.). Recordings were digitized (10 kHz) online with Digidata-1200 interface card (Axon Instruments, Union City, Calif.) and analyzed offline with Axon package, MiniAnalysis (S (Synaptsoft, Decatur, Ga.), and Origin (Microcal Software, Northampton, Mass.).\nas §2\nIf the polarity of GABA actions at delivery produces long terms effects in offsprings, then restoring low [Cl^−]i and inhibitory GABA at delivery might restore physiological parameters in juvenile rodents. To test this hypothesis, pregnant females were treated orally 1 day before delivery with bumetanide (2-2.5 mg/kg in drinking water) and juvenile offspring neurons recorded at P15. […] In VPA rats, GABAergic inputs are excitatory and contribute to hyperexcitability of the network. Bumetanide decreases [Cl^−]i and consequently reduces contribution of excitatory GABAergic inputs in the overall network activity."}, "[4]": {"test_system": "hippocampal CA3 pyramidal neurons", "assay": "Whole-cell voltage clamp recordings of sEPSCs in offspring after maternal pretreatment", "type": "in vivo, rat", "details": "P15 rats, maternal SSR pretreatment (1 mg/kg in drinking water); result in words", "procedure": "Standard whole-cell recordings were performed in coronal neocortical rat or mouse brain slices at room temperature (20-22° C.) from the soma of hippocampal CA3 neurons using an EPC-10 (HEKA Elektronik, Germany) amplifier and filtered at 3-10 kHz. The internal solution contained (in mM): 130 K-gluconate, 10 Na-gluconate, 4 NaCl, 4 MgATP, 4 phosphocreatine, 10 HEPES, and 0.3 GTP (pH 7.3 with KOH). Biocytin (final concentration 0.3-0.5%) was added to the pipette solution to label the neurons from which recordings were obtained. Neurons were visualized by using infrared DIC video microscopy. Spontaneous postsynaptic currents were recorded for […] at the reversal potentials for […] currents (−70 mV). It should be specifically noted that all recordings were made in normal ACSF (1.3 mM MgCl2). Stored data were analyzed using the Mini Analysis 6.0.3 (Synaptosoft Inc., Chapell Hill, N.C.) and Origin (MicroCal, Northampton, Mass.) software. To minimize potential sampling bias, the pups from at least three deliveries for each condition were studied. Data are expressed as mean±S.E.M.\nBumetanide (10 μM), Oxytocin (1 μM) and Isoguvacine (2 μM) were directly added to the perfusion solutions. Bumetanide pretreatment (2-2.5 mg/kg) was given to the dams in drinking water. All drugs used were purchased from Sigma. […]"}},
  "note": "Several values for one entry are separate records, joined by “and”; a condition that tells them apart may be missing. Equal values may be shown once. Entries after “also recorded” stand apart in the source; their conditions may differ.",
  "data": [
    {"smiles": "O=C(O)C1=CCNCC1", "note": "[isoguvacine]", "values": [
      {"measurement": "Effects of isoguvacine on frequency of spikes in extracellular recordings (% of control), mean ± S.E.", "setting": "hippocampal slices; VPA rats", "result": "213.5 ± 16.3 (n = 6), P < 0.001 % of control"},
      {"measurement": "Effects of isoguvacine on frequency of spikes in extracellular recordings (% of control), mean ± S.E.", "setting": "hippocampal slices; VPA rats, listed as Isoguvacine", "result": "213.5±16.3 % of control"},
      {"measurement": "Effects of isoguvacine on frequency of spikes in extracellular recordings (% of control), mean ± S.E.", "setting": "hippocampal slices; control rats", "result": "38.9 ± 5.1 (n = 3), P < 0.001 % of control"},
      {"measurement": "Effects of isoguvacine on frequency of spikes in extracellular recordings (% of control), mean ± S.E.", "setting": "hippocampal slices; control rats, listed as Isoguvacine", "result": "38.9±5.1 % of control"},
      {"measurement": "spike frequency in cell-attached recordings", "setting": "CA3 pyramidal cells; isoguvacine 2 μM, naive neurons, P0", "result": "inhibited or did not affected"},
      {"measurement": "spike frequency in cell-attached recordings", "setting": "CA3 pyramidal cells; isoguvacine, VPA neurons, P0 and P15", "result": "excitatory action; also recorded: increased"}
    ]},
    {"smiles": "CCCC(CCC)C(=O)O", "note": "[VPA, valproic acid]", "values": [
      {"measurement": "Integral power spectra of EEG recordings, mean ± S.E.M.", "setting": "[1]; frequency band 0.5-4 Hz", "result": "164.05 ± 39.44"},
      {"measurement": "Integral power spectra of EEG recordings, mean ± S.E.M.", "setting": "[1]; frequency band 4-7 Hz", "result": "42.01 ± 12.03"},
      {"measurement": "Integral power spectra of EEG recordings, mean ± S.E.M.", "setting": "[1]; frequency band 7-12 Hz", "result": "16.52 ± 4.32"},
      {"measurement": "Integral power spectra of EEG recordings, mean ± S.E.M.", "setting": "[1]; frequency band 12-25 Hz", "result": "16.56 ± 4.78"},
      {"measurement": "Integral power spectra of EEG recordings, mean ± S.E.M.", "setting": "[1]; frequency band 25-60 Hz", "result": "2.41 ± 0.62"},
      {"measurement": "Integral power spectra of EEG recordings, mean ± S.E.M.", "setting": "[1]; frequency band 60-120 Hz", "result": "0.74 ± 0.17"},
      {"measurement": "Integral power spectra of EEG recordings, mean ± S.E.M.", "setting": "[1]; frequency band 120-500 Hz", "result": "1.83 ± 0.42"},
      {"measurement": "Number of calls, isolation-induced USVs mean ± S.E.M", "setting": "[2]", "result": "1 ± 0.5 (n = 26)"},
      {"measurement": "Total duration of calls, isolation-induced USVs mean ± S.E.M", "setting": "[2]", "result": "0.04 ± 0.02 (n = 26)"},
      {"measurement": "DFGABA (mV), mean ± S.E.", "setting": "[3]; age E20", "result": "8.5 ± 0.6 (n = 9) mV"},
      {"measurement": "DFGABA (mV), mean ± S.E.", "setting": "[3]; age P0", "result": "8.2 ± 1.3 (n = 29) mV"},
      {"measurement": "DFGABA (mV), mean ± S.E.", "setting": "[3]; age P2", "result": "11.7 ± 1.4 (n = 24) mV"},
      {"measurement": "DFGABA (mV), mean ± S.E.", "setting": "[3]; age P7", "result": "9.7 ± 1.1 (n = 26) mV"},
      {"measurement": "DFGABA (mV), mean ± S.E.", "setting": "[3]; age P15", "result": "10.2±1.0 mV and 10.2 ± 1 (n = 25 mV and 10.2 ± 1.0 (n = 25) mV"},
      {"measurement": "DFGABA (mV), mean ± S.E.", "setting": "[3]; age P30", "result": "8.7 ± 0.8 (n = 25) mV"}
    ]},
    {"smiles": "CCN(Cc1cccnc1)C(=O)c1ccc(Cl)c([C@]2(C)C(=O)N(Cc3ccc(OC)cc3OC)c3ccc(Cl)cc32)c1", "note": "[SSR]", "values": [
      {"measurement": "spontaneous activity of neuronal networks (sEPSCs)", "setting": "[4]", "result": "increases"}
    ]}
  ]
}
